Assay results from US8912169B2, “Beta-lactamase inhibitors” (VenatoRx Pharmaceuticals, Inc., priority 2012, dated 2014).

Columns and labels:
p99 AmpC = biological target: T1, p99 AmpC (Enterobacter cloacae, UniProt P05364); test: β-lactamase enzyme inhibition, p99 AmpC; assay type: biochemical; details: substrate Nitrocefin 100 μM, 486 nm; read-out: Class C AmpC IC50
T1 construct: made in house; host or cells: E. coli BL21(DE3)
How it was run: (§1)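 Native untagged β-lactamases expressed in E. coli BL21(DE3) and purified, then pre-incubated with inhibitor 15 min at 37 °C. Hydrolysis was followed by absorbance: 100 μM nitrocefin at 486 nm for p99 AmpC and OXA-1; imipenem at 300 nm for KPC-2; cefotaxime at 260 nm for SHV-5. IC50 from initial-rate inhibition versus uninhibited controls.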

KPC-2 = biological target: T2, KPC-2 (Klebsiella pneumoniae, UniProt Q9F663); test: β-lactamase enzyme inhibition, KPC-2; assay type: biochemical; details: substrate imipenem, 300 nm; read-out: Class A KPC-2 IC50
T2 construct: made in house; host or cells: E. coli BL21(DE3)
How it was run: as §1

E. cl. 144200 p99 AmpC = test: broth microdilution MIC, E. cloacae P99; assay type: cell-based; details: Fixed CAZ 4 μg/mL
Description: (§2) To determine the ability of test compounds to potentiate the inhibition of the growth of bacterial strains that produce beta-lactamase enzymes, classic cell based broth microdilution MIC assays were employed. Six bacteria strains producing beta-lactamase enzymes were used: E. coli expressing the Class A Extended Spectrum Beta-Lactamase (ESBL) CTX-M-15, E. cloacae expressing the Class C P99, K. pneumoniae expressing the Class A carbapenemase KPC-3, P. aeruginosa expressing the Class B carbapenemase VIM-2, K. pneumoniae expressing the class A carbapenemase KPC-2 and the class B carbapenemase VIM-4, and S. aureus producing the Class A penicillinase PC-1. The assay was conducted in Cation Adjusted Mueller Hinton Broth (CAMHB, BD #212322, BD Diagnostic Systems, Sparks, Md.). Bacteria strains were grown for 3-5 hours in CAMBH broth. Test compounds were added to a microtiter plate in 2-fold serial dilutions in CAMHB in a final concentration range of 32 μg/mL to 0.25 μg/ml. An overlay of CAMHB containing a Beta-lactam was added to the compounds at a final static concentration of 4 μg/ml. […] In addition to the titration of test compounds the MICs of a panel of control beta-lactams is also tested to ensure the strains are behaving consistently from test to test. Once the test compound and antibiotics are added the plates can be inoculated according to CLSI broth microdilution method. After inoculation the plates are incubated for 16-20 hours at 37° C. then the Minimal Inhibitory Concentration (MIC) of the test compound is determined visually.
(§3) Using the methodology described above in EXAMPLE III, exemplary compounds for Formula I or Formula Ia were evaluated for their ability to inhibit the growth of β-lactamase producing bacteria in the presence of a β-lactam antibiotic. […]

K.P. A-1797 KPC-2 VIM-4 = test: broth microdilution MIC, K. pneumoniae KPC-2 and VIM-4; assay type: cell-based; details: Fixed Mero 4 μg/mL
Description: as §2, §3

OXA-1 = biological target: T3, OXA-1 (Escherichia coli, UniProt P13661); test: β-lactamase enzyme inhibition, OXA-1; assay type: biochemical; details: substrate Nitrocefin 100 μM, 486 nm; read-out: Class D OXA-1 IC50
T3 construct: made in house; host or cells: E. coli BL21(DE3)
How it was run: as §1

SHV-5 = biological target: T4, SHV-5 (Klebsiella pneumoniae, UniProt P0A3M1); test: β-lactamase enzyme inhibition, SHV-5; assay type: biochemical; details: substrate Cefotaxime, 260 nm; read-out: Class A SHV-5 IC50
T4 construct: made in house; host or cells: E. coli BL21(DE3)
How it was run: as §1

K.P. 156319 KPC-3 = test: broth microdilution MIC, K. pneumoniae KPC-3; assay type: cell-based; details: Fixed Mero 4 μg/mL
Description: as §2, §3

E. coli ESBL4 CTX-M-15 = test: broth microdilution MIC, E. coli CTX-M-15; assay type: cell-based; details: Fixed CAZ 4 μg/mL
Description: as §2, §3

P. aerug. Ps296 VIM-2 = test: broth microdilution MIC, P. aeruginosa VIM-2; assay type: cell-based; details: Fixed Mero 4 μg/mL
Description: as §2
Using the methodology described above in EXAMPLE III, exemplary compounds for Formula I or Formula Ia were evaluated for their ability to inhibit the growth of β-lactamase producing bacteria in the presence of a β-lactam antibiotic.
Representative results are shown in Table 4 where A represents an MIC of the fixed β-lactam antibiotic in the presence of >32 μg/mL of a β-lactamase inhibitor of exemplary compounds, B represents the MIC in the presence of between 8 and 32 μg/mL of a β-lactamase inhibitor of exemplary compounds, and C represents the MIC in the presence of ≦4 μg/mL of a β-lactamase inhibitor of exemplary compounds. NT=Not Tested.

VIM-2 = biological target: T5, VIM-2 (Escherichia coli, UniProt Q5U7L7); test: β-lactamase enzyme inhibition, VIM-2; assay type: biochemical; details: substrate Nitrocefin 100 μM, 486 nm; read-out: Class B VIM-2 IC50
T5 construct: made in house; host or cells: E. coli BL21(DE3)
How it was run: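 Purified VIM-2 (Q sepharose, 50 mM Hepes pH 7.5, >90% purity) preincubated with inhibitor 15 min at 37° C, then nitrocefin added at 100 μM final. Hydrolysis followed at 486 nm for 10 min; IC50 from initial rates versus inhibitor-free control wells.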

Which IC50 (p99 AmpC) does the source give for “(3R)-3-[[2-[(1S,3S,4S)-3,4-bis(aminomethyl)cyclohexyl]acetyl]amino]-2-hydroxy-3,4-dihydro-1,2-benzoxaborinine-8-carboxylic acid and (3R)-3-[[2-[(1R,3R,4R)-3,4-bis(aminomethyl)cyclohexyl]acetyl]amino]-2-hydroxy-3,4-dihydro-1,2-benzoxaborinine-8-carboxylic acid [Example 18]” here?
The IC50 was under 100 nM.

What about the IC50 (KPC-2) of the same substance?
The IC50 was under 100 nM.

And the “MIC of exemplary compounds in presence of fixed β-lactams, E. cl. 144200 p99 AmpC” value (E. cl. 144200 p99 AmpC)?
Its value is “C (C represents the MIC in the presence of ≦4 μg/mL of a β-lactamase inhibitor of exemplary compounds)”.

And the “MIC of exemplary compounds in presence of fixed β-lactams, K.P. A-1797 KPC-2 VIM-4” value (K.P. A-1797 KPC-2 VIM-4)?
The value was “B (B represents the MIC in the presence of between 8 and 32 μg/mL of a β-lactamase inhibitor of exemplary compounds)”.

What about the IC50 (OXA-1) of the same substance?
Its IC50 is under 100 nM.

And the IC50 (SHV-5)?
The IC50 was under 100 nM.

And the “MIC of exemplary compounds in presence of fixed β-lactams, K.P. 156319 KPC-3” value (K.P. 156319 KPC-3)?
The value was “C (C represents the MIC in the presence of ≦4 μg/mL of a β-lactamase inhibitor of exemplary compounds)”.

And the “MIC of exemplary compounds in presence of fixed β-lactams, E. coli ESBL4 CTX-M-15” value (E. coli ESBL4 CTX-M-15)?
Its value is “C (C represents the MIC in the presence of ≦4 μg/mL of a β-lactamase inhibitor of exemplary compounds)”.

And the “MIC of exemplary compounds in presence of fixed β-lactams, P. aerug. Ps296 VIM-2” value (P. aerug. Ps296 VIM-2)?
Its value is “C (C represents the MIC in the presence of ≦4 μg/mL of a β-lactamase inhibitor of exemplary compounds)”.

What about the IC50 (VIM-2) of the same substance?
Its IC50 is under 100 nM.
